Test results published in US5220008A, “Oligosaccharide inhibitors for influenza virus” (priority 1991, dated 1993).

Tested on: influenza virus (A/Aichi/2/68)
Assay: Inhibition of Influenza Virus Adsorbtion to Erythrocytes (hemagglutination of resialylated human erythrocytes)
Conditions: relative to Me αDNeuAc = 1.0 (Table 8)
From the text: The heptasaccharides can be evaluated as inhibitors of the influenza virus hemagglutination of the resialylated human erythrocytes.
^a Inhibition of influenza virus (A/Aichi/2/68) to resialylated

Compound	Relative Potency
COC(=O)CCCCCOC1OC(COC2OC(CO)C(OC3OC(COC4(C(=O)O)CC(O)C(NC(C)=O)C(C(O)C(O)CO)O4)C(O)C(O)C3O)C(O)C2NC(C)=O)C(O)C(OC2OC(CO)C(OC3OC(COC4(C(=O)O)CC(O)C(NC(C)=O)C(C(O)C(O)CO)O4)C(O)C(O)C3O)C(O)C2NC(C)=O)C1O [Example 30, 5-(Methoxycarbonyl)pentyl 3,6-di-O-{5-acetamido-3,5-dideoxy-D-glycero-D-galacto-2-nanulopyranosylonic acid(2→6)-β-galactopyranosyl(1→4)-2-acetamido-2-deoxy-β-D-glucopyranosyl}-β-D-galactopyranoside]	8.4
COC(=O)CCCCCOC1OC(CO)C(O)C(OC2OC(CO)C(OC3OC(COC4(C(=O)O)CC(O)C(NC(C)=O)C(C(O)C(O)CO)O4)C(O)C(O)C3O)C(O)C2NC(C)=O)C1OC1OC(CO)C(OC2OC(COC3(C(=O)O)CC(O)C(NC(C)=O)C(C(O)C(O)CO)O3)C(O)C(O)C2O)C(O)C1NC(C)=O [Example 27, 5-(Methoxycarbonyl)pentyl 2,3-di-O-{5-acetamido-3,5-dideoxy-D-glycero-D-galacto-2-nanulopyranosylonic acid(2→6)-β-D-galactopyranosyl(1→4)-2-acetamido-2-deoxy-β-D-glucopyranosyl}-β-D-galactopyranoside]	7.2
COC(=O)CCCCCOC1OC(CO)C(OC2OC(CO)C(OC3OC(COC4(C(=O)O)CC(O)C(NC(C)=O)C(C(O)C(O)CO)O4)C(O)C(O)C3O)C(O)C2NC(C)=O)C(O)C1OC1OC(CO)C(OC2OC(COC3(C(=O)O)CC(O)C(NC(C)=O)C(C(O)C(O)CO)O3)C(O)C(O)C2O)C(O)C1NC(C)=O [Example 28, 5-(Methoxycarbonyl)pentyl 2,4-di-O-{5-acetamido-3,5-dideoxy-D-glycero-D-galacto-2-nanulopyranosylonic acid(2→6)-β-D-galactopyranosyl(1→4)-2--acetamido-2-deoxy-β-D-glucopyranosyl}-β-D-galactopyranoside]	1.5
COC(=O)CCCCCOC1OC(CO)C(OC2OC(CO)C(OC3OC(CO)C(O)C(O)C3O)C(O)C2NC(C)=O)C(O)C1OC1OC(CO)C(OC2OC(COC3(C(=O)O)CC(O)C(NC(C)=O)C(C(O)C(O)CO)O3)C(O)C(O)C2O)C(O)C1NC(C)=O [Example 28A, 5-(methoxycarbonyl)pentyl 2-O-[5-acetamido-3,5-dideoxy-D-glycero-D-galactononulopyranosylonic acid (2→6)-β-D-galactopyranosyl-(1→4)-2-acetamido-2-deoxy-D-glycopyranosyl]-4-O-[β-D-galactopyranosyl-(1→4)-2-acetamido-2-deoxy-D-glucopyranosyl]-β-D-galactopyranoside]	1.9
